Experimental data taken from US11713338B2, “Cyclic peptides multimers targeting α-4-β-7 integrin” (priority 2016, dated 2023).

Assays:
[1] = biological target: T1, recombinant integrin α4β1 (Homo sapiens, UniProt P05556+P13612); test: Integrin α4β1—VCAM-1 competition ELISA; format: binding; settings: for ELISA Assay Ratio β1/β7: ratio of ELISA IC50s, α4β1 over α4β7; for IC50: read-out: ELISA α4β1 Assay IC50
T1 construct: purchased R&D Systems 5397-A3-050
In short: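 Compound dilutions added to coated plate and shaken at room temperature for 2 h (300 rpm) to binding equilibrium. Wash buffer: 50 mM Tris, 100 mM NaCl, 1 mM MnCl2, 0.05% Tween. Bound Fc-tagged ligand detected with anti-human IgG Fc-HRP, 1 h at room temperature.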

[2] = biological target: T2, integrin α4β1 (RAMOS human cells adhering to VCAM-1) (Homo sapiens, UniProt P05556+P13612); test: Integrin α4β1-VCAM cell adhesion assay (RAMOS cells); format: cell-based; settings: for IC50: Ramos cells adhering to VCAM, read-out: Ramos Adhesion α4β1/VCAM IC50; for Ratio Ramos/RPMI: ratio of cell adhesion IC50s, Ramos α4β1/VCAM over RPMI8866 α4β7/MAdCAM
T2 construct: Ramos cells, which express integrin α4β1; host or cells: RAMOS
Method: Integrin α4β1-VCAM Cell Adhesion Assay
The plate was incubated overnight at 4° C. and washed twice with 150 μl per well wash buffer (0.05% Tween 20 in PBS), blocked with 250 μl per well blocking buffer (1% non-fat dry milk in PBS), for 1 hour at room temperature. During blocking step, RAMOS cells were resuspended at 10 million cells/ml in PBS containing […] and incubated at 37° C. for 30 min in a 50 ml tube. […] The plate was emptied by inverting and blotting on paper towels and washed manually twice with PBS. […] To calculate the dose response, the fluorescence value of control wells not containing cells was subtracted from each test well.

T2 sequence (P13612 34-1032): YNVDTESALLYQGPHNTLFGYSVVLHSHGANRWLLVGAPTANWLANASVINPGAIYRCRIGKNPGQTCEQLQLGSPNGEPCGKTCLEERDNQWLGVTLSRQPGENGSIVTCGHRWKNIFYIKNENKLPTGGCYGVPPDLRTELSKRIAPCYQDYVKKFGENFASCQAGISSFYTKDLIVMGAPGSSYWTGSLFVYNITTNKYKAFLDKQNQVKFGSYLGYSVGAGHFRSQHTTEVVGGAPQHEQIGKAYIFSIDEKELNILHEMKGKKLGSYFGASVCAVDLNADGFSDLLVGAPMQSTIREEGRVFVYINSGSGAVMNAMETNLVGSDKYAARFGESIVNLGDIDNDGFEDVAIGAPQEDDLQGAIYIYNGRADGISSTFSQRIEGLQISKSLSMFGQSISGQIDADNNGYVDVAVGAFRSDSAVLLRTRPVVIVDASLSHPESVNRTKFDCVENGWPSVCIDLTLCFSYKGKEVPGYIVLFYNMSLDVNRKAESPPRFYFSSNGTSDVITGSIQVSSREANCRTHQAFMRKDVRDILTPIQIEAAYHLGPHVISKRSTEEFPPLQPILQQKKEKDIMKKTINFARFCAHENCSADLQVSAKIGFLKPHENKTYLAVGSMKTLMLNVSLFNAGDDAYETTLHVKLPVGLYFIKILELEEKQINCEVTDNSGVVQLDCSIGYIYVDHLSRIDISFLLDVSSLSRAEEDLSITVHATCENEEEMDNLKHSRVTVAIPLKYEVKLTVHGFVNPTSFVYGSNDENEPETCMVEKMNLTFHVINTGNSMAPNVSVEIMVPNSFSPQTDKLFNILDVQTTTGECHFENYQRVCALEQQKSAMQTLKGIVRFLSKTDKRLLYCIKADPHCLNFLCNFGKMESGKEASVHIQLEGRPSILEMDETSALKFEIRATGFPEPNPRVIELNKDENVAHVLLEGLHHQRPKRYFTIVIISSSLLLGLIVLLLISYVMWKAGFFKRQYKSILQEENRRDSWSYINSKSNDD
T2 sequence (P05556 21-798): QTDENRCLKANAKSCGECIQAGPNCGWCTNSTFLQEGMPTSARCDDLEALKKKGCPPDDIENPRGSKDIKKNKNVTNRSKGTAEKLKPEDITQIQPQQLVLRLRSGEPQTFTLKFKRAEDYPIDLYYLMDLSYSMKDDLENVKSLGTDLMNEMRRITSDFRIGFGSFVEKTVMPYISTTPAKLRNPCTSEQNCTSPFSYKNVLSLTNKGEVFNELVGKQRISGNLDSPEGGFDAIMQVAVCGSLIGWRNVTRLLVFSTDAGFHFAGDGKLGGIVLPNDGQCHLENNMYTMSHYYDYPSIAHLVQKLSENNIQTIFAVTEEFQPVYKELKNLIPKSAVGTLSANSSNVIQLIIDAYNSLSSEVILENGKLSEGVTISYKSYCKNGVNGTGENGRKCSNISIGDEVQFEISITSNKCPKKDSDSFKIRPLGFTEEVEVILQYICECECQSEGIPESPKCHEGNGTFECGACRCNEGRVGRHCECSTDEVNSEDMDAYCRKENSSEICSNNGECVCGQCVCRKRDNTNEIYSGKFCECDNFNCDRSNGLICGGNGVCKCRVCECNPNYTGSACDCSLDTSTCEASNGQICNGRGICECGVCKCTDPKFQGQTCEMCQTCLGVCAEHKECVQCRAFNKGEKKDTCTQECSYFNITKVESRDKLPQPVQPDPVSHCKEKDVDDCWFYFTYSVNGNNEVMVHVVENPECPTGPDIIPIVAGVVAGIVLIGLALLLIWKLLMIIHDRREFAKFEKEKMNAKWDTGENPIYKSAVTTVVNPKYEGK
T1 sequence (P13612 34-970 limits assumed): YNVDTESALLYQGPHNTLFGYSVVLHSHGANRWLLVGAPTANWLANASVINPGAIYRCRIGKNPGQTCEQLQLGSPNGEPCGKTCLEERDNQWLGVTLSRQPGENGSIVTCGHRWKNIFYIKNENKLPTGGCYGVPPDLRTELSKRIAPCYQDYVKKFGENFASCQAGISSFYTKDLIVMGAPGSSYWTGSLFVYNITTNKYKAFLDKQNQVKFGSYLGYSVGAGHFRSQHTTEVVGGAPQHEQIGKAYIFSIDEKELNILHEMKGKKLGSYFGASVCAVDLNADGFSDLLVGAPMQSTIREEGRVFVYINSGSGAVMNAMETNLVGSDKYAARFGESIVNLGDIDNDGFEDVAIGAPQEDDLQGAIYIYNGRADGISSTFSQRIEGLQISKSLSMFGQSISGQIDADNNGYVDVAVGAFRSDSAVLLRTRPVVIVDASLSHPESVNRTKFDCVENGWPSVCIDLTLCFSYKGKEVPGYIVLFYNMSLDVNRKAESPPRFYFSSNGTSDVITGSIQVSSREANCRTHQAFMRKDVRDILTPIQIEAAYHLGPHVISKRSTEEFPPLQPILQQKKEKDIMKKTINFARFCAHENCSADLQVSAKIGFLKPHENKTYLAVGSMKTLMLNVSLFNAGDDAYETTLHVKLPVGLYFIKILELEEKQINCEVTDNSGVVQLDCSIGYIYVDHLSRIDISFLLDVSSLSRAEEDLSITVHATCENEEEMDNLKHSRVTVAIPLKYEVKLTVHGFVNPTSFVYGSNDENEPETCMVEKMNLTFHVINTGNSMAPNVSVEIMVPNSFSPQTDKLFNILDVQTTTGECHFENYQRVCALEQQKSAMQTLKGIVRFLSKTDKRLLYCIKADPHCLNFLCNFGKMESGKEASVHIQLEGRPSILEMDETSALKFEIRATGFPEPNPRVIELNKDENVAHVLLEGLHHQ
T1 sequence (P05556 21-728 limits assumed): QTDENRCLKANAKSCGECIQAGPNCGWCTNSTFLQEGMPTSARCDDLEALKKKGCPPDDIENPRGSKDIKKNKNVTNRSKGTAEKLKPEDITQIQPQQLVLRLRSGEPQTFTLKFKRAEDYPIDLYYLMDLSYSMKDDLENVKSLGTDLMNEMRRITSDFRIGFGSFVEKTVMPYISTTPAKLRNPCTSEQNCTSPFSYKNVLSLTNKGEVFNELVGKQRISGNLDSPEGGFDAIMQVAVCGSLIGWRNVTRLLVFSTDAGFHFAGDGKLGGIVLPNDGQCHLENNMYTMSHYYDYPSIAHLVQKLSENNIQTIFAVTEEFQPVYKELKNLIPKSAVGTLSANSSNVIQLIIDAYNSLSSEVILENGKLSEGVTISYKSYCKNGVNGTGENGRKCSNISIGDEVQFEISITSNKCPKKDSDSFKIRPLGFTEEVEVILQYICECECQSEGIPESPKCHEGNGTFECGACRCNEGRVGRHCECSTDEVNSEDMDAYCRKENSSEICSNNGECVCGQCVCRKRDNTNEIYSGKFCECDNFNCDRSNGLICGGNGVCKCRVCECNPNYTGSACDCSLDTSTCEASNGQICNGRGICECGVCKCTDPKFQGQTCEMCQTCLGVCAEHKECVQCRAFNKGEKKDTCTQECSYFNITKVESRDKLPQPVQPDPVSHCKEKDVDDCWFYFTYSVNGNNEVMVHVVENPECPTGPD

Compound: CC(C)C[C@@H]1NC(=O)c2ccc(-c3ccc(N4CCN(C(=O)c5ccc(-c6cccc(C(=O)N7CCN(c8ccc(-c9ccc%10cc9CNC(=O)[C@@H]9CCCN9[C@H](C(=O)NC(C)(C)C)[C@H](C)NC(=O)[C@H]([C@@H](C)O)NC(=O)[C@H](CC(=O)O)NC(=O)[C@H](CC(C)C)NC%10=O)cc8)CC7)n6)nc5)CC4)cc3)c(c2)CNC(=O)[C@@H]2CCCN2[C@H](C(=O)NC(C)(C)C)[C@H](C)NC(=O)[C@H]([C@@H](C)O)NC(=O)[C@H](CC(=O)O)NC1=O [Compound 466]
- ELISA Assay Ratio β1/β7 [1]: 0.3
- IC50 [1]: 4.2 nM
- IC50 [2]: 3240 nM
- Ratio Ramos/RPMI [2]: 34

Compound: CC(C)C[C@@H]1NC(=O)c2ccc(-c3ccc(N4CCN(C(=O)c5ccc(C(=O)N6CCN(c7ccc(-c8ccc9cc8CNC(=O)[C@@H]8CCCN8[C@H](C(=O)NC(C)(C)C)[C@H](C)NC(=O)[C@H]([C@@H](C)O)NC(=O)[C@H](CC(=O)O)NC(=O)[C@H](CC(C)C)NC9=O)cc7)CC6)s5)CC4)cc3)c(c2)CNC(=O)[C@@H]2CCCN2[C@H](C(=O)NC(C)(C)C)[C@H](C)NC(=O)[C@H]([C@@H](C)O)NC(=O)[C@H](CC(=O)O)NC1=O [Compound 470]
- ELISA Assay Ratio β1/β7 [1]: 0.2
- IC50 [1]: 1 nM
- IC50 [2]: 1110 nM
- Ratio Ramos/RPMI [2]: 66

Compound: CC(C)C[C@@H]1NC(=O)c2ccc(-c3ccc(N4CCN(C(=O)[C@H]5CCC[C@H]5C(=O)N5CCN(c6ccc(-c7ccc8cc7CNC(=O)[C@@H]7CCCN7[C@H](C(=O)NC(C)(C)C)[C@H](C)NC(=O)[C@H]([C@@H](C)O)NC(=O)[C@H](CC(=O)O)NC(=O)[C@H](CC(C)C)NC8=O)cc6)CC5)CC4)cc3)c(c2)CNC(=O)[C@@H]2CCCN2[C@H](C(=O)NC(C)(C)C)[C@H](C)NC(=O)[C@H]([C@@H](C)O)NC(=O)[C@H](CC(=O)O)NC1=O [Compound 458]
- ELISA Assay Ratio β1/β7 [1]: 0.2
- IC50 [1]: 1.5 nM
- IC50 [2]: 990 nM
- Ratio Ramos/RPMI [2]: 23

Compound: CC(C)C[C@@H]1NC(=O)c2ccc(-c3ccc(N4CCN(C(=O)CC[C@H](N)C(=O)N5CCN(c6ccc(-c7ccc8cc7CNC(=O)[C@@H]7CCCN7[C@H](C(=O)NC(C)(C)C)[C@H](C)NC(=O)[C@H]([C@@H](C)O)NC(=O)[C@H](CC(=O)O)NC(=O)[C@H](CC(C)C)NC8=O)cc6)CC5)CC4)cc3)c(c2)CNC(=O)[C@@H]2CCCN2[C@H](C(=O)NC(C)(C)C)[C@H](C)NC(=O)[C@H]([C@@H](C)O)NC(=O)[C@H](CC(=O)O)NC1=O [Compound 494]
- ELISA Assay Ratio β1/β7 [1]: 0.2
- IC50 [1]: 1.9 nM
- IC50 [2]: 161 nM
- Ratio Ramos/RPMI [2]: 3

Compound: CC(C)C[C@@H]1NC(=O)C[C@H](CCCCN)N(C)C(=O)[C@H](CCCCNC(=O)c2ccccc2-c2ccccc2C(=O)NCCCC[C@@H]2NC(=O)[C@@H]3CCCN3[C@H](C(=O)NC(C)(C)C)[C@H](C)NC(=O)[C@H]([C@@H](C)O)NC(=O)[C@H](CC(=O)O)NC(=O)[C@H](CC(C)C)NC(=O)C[C@H](CCCCN)N(C)C2=O)NC(=O)[C@@H]2CCCN2[C@H](C(=O)NC(C)(C)C)[C@H](C)NC(=O)[C@H]([C@@H](C)O)NC(=O)[C@H](CC(=O)O)NC1=O [Compound 535]
- ELISA Assay Ratio β1/β7 [1]: 0.9
- IC50 [1]: 9.7 nM
- IC50 [2]: 9510 nM
- Ratio Ramos/RPMI [2]: 634

Compound: CC(C)C[C@@H]1NC(=O)c2ccc(-c3ccc(N4CCN(C(=O)CCOCCOCCNC(=O)CCCCCC(=O)NCCOCCOCCC(=O)N5CCN(c6ccc(-c7ccc8cc7CNC(=O)[C@@H]7CCCN7[C@H](C(=O)NC(C)(C)C)[C@H](C)NC(=O)[C@H]([C@@H](C)O)NC(=O)[C@H](CC(=O)O)NC(=O)[C@H](CC(C)C)NC8=O)cc6)CC5)CC4)cc3)c(c2)CNC(=O)[C@@H]2CCCN2[C@H](C(=O)NC(C)(C)C)[C@H](C)NC(=O)[C@H]([C@@H](C)O)NC(=O)[C@H](CC(=O)O)NC1=O [Compound 505]
- ELISA Assay Ratio β1/β7 [1]: 0.3
- IC50 [1]: 6.6 nM
- IC50 [2]: 1780 nM
- Ratio Ramos/RPMI [2]: 30
